Tests used:
[1] = tested on: melanoma RPMI-7951 cells; assay: MTS cell viability assay, RPMI-7951 cells; type: cell-based, human; conditions: Homo sapiens, RPMI-7951, 24 h, individual compounds, 24 h, MTS; read-out: Inhibiting Concentration, (IC50), RPMI-7951, a
Procedure: (§1) Human embryonic kidney HEK 293 cells (ATCC® no. CRL-1573™), colorectal carcinoma HT-29 cells (ATCC® no. HTB-38™), melanoma RPMI-7951 cells (ATCC® no. HTB-66), and breast cancer MDA-MB-231 cells (ATCC® HTB-26™) were obtained from the American Type Culture Collection (Manassas, VA, USA). […] The cell cultures were maintained at 37 °C in humidified atmosphere containing 5% CO2. […] After three passages the cells were used for the experiments. […] Then samples were vacuum evaporated and dissolved in DMSO to their stock concentrations of 20 mM. Cells (1.0 × 10^4) were seeded in 96-well plates (Jet Biofil, Guangzhou, China) and cultured in 200 µL of complete culture medium for 24 h at 37 °C in 5% CO2 incubator.

[2] = tested on: HT-29, RPMI-7951, and MDA-MB-231 cells; assay: Soft agar colony formation assay, statements on all types of cancer cells; type: cell-based, human; conditions: nontoxic concentrations
Procedure: (§2) Compounds 1–6 were dissolved in sterile DMSO to prepare stock concentrations of 20 mM. Cells were treated with serially diluted compounds 1–6 (culture medium used as diluent) to give the intended final concentrations. The vehicle control is the cells treated with equivalent volume of DMSO (less than 0.5%) for all presented experiments.
(§3) Human cancer cells (2.4 × 10^4/mL) were seeded into 6-well plate and treated with compounds 1–6 (0.1, 0.5, and 1 µM) or cisplatin (3 µM) in 1 mL of 0.3% BME agar containing 10% FBS, 2 mM L-glutamine, and 25 µg/mL gentamicin. The cultures were maintained in a 37 °C, 5% CO2 incubator for 14 days, and the cell colonies were scored using a Motic microscope AE 20 (XiangAn, Xiamen, China) and ImageJ software bundled with 64-bit Java 1.8.0_112 (NIH, Bethesda, MD, USA).
Figure 3 Effect of compounds 1–6 on colony formation of human colorectal carcinoma HT-29, melanoma RPMI-7951, and breast cancer MDA-MB-231 cell lines. HT-29, RPMI-7951, and MDA-MB-231 cells (2.4 × 10^4 /mL) treated with/without investigated 1–6 (0.1, 0.5, and 1 µM) and subjected into a soft agar. The culture was maintained at 37 °C in a 5% CO2 atmosphere for 2 weeks. The colonies were counted under a microscope with the aid of the ImageJ software program (n = 6 for control and each compound, n—quantity of photos). […]

[3] = tested on: breast cancer MDA-MB-231 cells; assay: Soft agar colony formation assay, MDA-MB-231 cells; type: cell-based, human; conditions: 1 µM, soft agar, 14 days
Procedure: as §2, §3
(§4) Figure 3 Effect of compounds 1–6 on colony formation of human colorectal carcinoma HT-29, melanoma RPMI-7951, and breast cancer MDA-MB-231 cell lines. HT-29, RPMI-7951, and MDA-MB-231 cells (2.4 × 10^4 /mL) treated with/without investigated 1–6 (0.1, 0.5, and 1 µM) and subjected into a soft agar. The culture was maintained at 37 °C in a 5% CO2 atmosphere for 2 weeks. The colonies were counted under a microscope with the aid of the ImageJ software program (n = 6 for control and each compound, n—quantity of photos). The asterisks (* p < 0.05, ** p < 0.01, *** p < 0.001) indicate a significant decrease in colony formation in cells treated with compounds compared with the nontreated cells (control).

[4] = tested on: colorectal carcinoma HT-29 cells; assay: MTS cell viability assay, HT-29 cells; type: cell-based, human; conditions: Homo sapiens, HT-29, 24 h, individual compounds, 24 h, MTS; read-out: Inhibiting Concentration, (IC50), HT-29, a
Procedure: as §1

[5] = tested on: human embryonic kidney HEK 293 cells; assay: MTS cell viability assay, HEK 293 cells; type: cell-based; conditions: Homo sapiens, HEK293, 24 h, individual compounds, 24 h, MTS; read-out: Inhibiting Concentration, (IC50), HEK 293, a
Procedure: as §1

[6] = tested on: breast cancer MDA-MB-231 cells; assay: MTS cell viability assay, MDA-MB-231 cells; type: cell-based, human; conditions: Homo sapiens, MDA-MB-231, 24 h, individual compounds, 24 h, MTS; read-out: Inhibiting Concentration, (IC50), MDA-MB-231, a
Procedure: as §1

[7] = tested on: colorectal carcinoma HT-29 cells; assay: Soft agar colony formation assay, HT-29 cells; type: cell-based, human; conditions: 1 µM, soft agar, 14 days
Procedure: as §2, §3, §4

[8] = tested on: melanoma RPMI-7951 cells; assay: Soft agar colony formation assay, RPMI-7951 cells; type: cell-based, human; conditions: 1 µM, soft agar, 14 days
Procedure: as §2, §3, §4

[9] = tested on: HEK 293, HT-29, RPMI-7951, and MDA-MB-231 cells; assay: MTS cell viability assay, statements on all tested cell lines; type: cell-based, human; conditions: individual compounds, 24 h, concentrations range up to 40 µM
Procedure: Cells (1.0 × 10^4) were seeded in 96-well plates (Jet Biofil, Guangzhou, China) and cultured in 200 µL of complete culture medium for 24 h at 37 °C in 5% CO2 incubator. […] Cells were also treated by cisplatin (positive control) at 1, 5, 10, 50, 100 µM for 24 and 48 h. Subsequently, the cells were incubated with 15 µL MTS reagent for 3 h, and the absorbance of each well was measured at 490/630 nm using Power Wave XS microplate reader (BioTek, Wynusky, VT, USA).

`CO[C@@H]1[C@@H](O)[C@H](O[C@@H]2[C@@H](O)[C@H](O[C@H]3[C@H](O)[C@@H](O[C@@H]4OC[C@@H](O)[C@H](O)[C@H]4O)[C@H](O[C@H]4[C@H](O[C@H]5CC[C@]6(C)[C@@H]7CCC89C(=O)O[C@@](C)(/C=C/C=O)[C@H]8[C@@H](OC(C)=O)C[C@@]9(C)C7=CC[C@H]6C5(C)C)OC[C@@H](O)[C@@H]4O)O[C@@H]3C)O[C@H](CO)[C@H]2O)OC[C@H]1O` (stereo partly drawn) [Compound 1, 3β-O-{3-O-methyl-β-D-xylopyranosyl-(1→3)-β-D-glucopyranosyl-(1→4)-[β-D-xylopyranosyl-(1→2)]-β-D-quinovopyranosyl-(1→2)-β-D-xylopyranosyl}-16β-acetoxy-25,26,27-trinorholosta-7,22-dien-24-al] was tested, and the IC50 [1] was > 40 µM, the “colony formation of all types of cancer cells (in words)” value [2] was “slightly inhibited” and the “decrease of number of colonies of MDA-MB-231” value [3] was 28%. The IC50 [4] was > 40 µM, the IC50 [5] was > 40 µM and the IC50 [6] was > 40 µM. The “decrease of number of colonies of HT-29” value [7] was 21%, the “decrease of number of colonies of RPMI-7951” value [8] was 27% and the “cytotoxic activity against the tested cell lines (in words)” value [9] was “nontoxic”.

— article PMC8001898, “New Triterpene Glycosides from the Far Eastern Starfish Solaster pacificus and Their Biological Activity” (Biomolecules, 2021)
